In patent US11234960B2, “Compositions and methods for improving mitochondrial function and treating neurodegenerative diseases and cognitive disorders” (Amazentis SA, priority 2010, dated 2022):

What was measured:
citrate synthase = test: Citrate synthase activity in C2C12 myotubes; format: cell-based; details: 48 hr, punicalagin 1 or 10 μM, ellagic acid or urolithin 1, 10 or 50 μM (FIG. 4)
Protocol: The enzyme citrate synthase catalyzes the reaction between acetyl coenzyme A (acetyl CoA) and oxaloacetic acid to form citric acid. The acetyl CoA contributes 2 carbons to the 4 carbons of oxaloacetate, resulting in citrate with 6 carbons. The hydrolysis of the thioester of acetyl CoA results in the formation of CoA with a thiol group (CoA-SH). The activity of citrate synthase is measured via the reaction between the thiol of CoA-SH with the DTNB in the mixture to form 5-thio-2-nitrobenzoic acid (TNB). This yellow product (TNB) is observed spectrophotometrically by measuring absorbance at 412 nm (Citrate Synthase Assay Kit, Cat Number CS0720, Sigma Aldrich).
C2C12 myoblasts were differentiated into myotubes by serum deprivation for 4 days (Canto et al. (2009) Nature. 458:1056-60). Myotubes were incubated for 48 hr with punicalagin at a final concentration of 1 or 10 μM or with ellagic acid or urolithin at a final concentration of 1, 10 or 50 μM (all dissolved in DMSO, final concentration 0.1%). DMSO was used as a control (final concentration 0.1%). At the end of the treatment, cells were washed 3 times with PBS and assayed for citrate synthase activity according to manufacturer's instructions (Citrate Synthase Assay Kit, Cat Number CS0720, Sigma Aldrich).

HFD-fed C57BL6/J mice [1] = test: Plasma biochemistry in HFD-fed mice; format: in vivo; details: HFD-fed mice treated for 14 weeks; for plasma levels of triglycerides: fasted 12 h (FIG. 23A); for plasma levels of free fatty acids: fasted 12 h (FIG. 23B)
Protocol: In addition, plasma biochemistry was performed 14 weeks after the initiation of the treatment using a standard automated clinical chemistry analyzer (Dimension Xpand, SIEMENS). Animals were fasted for 12 h (from 8 pm to 8 am) before blood collection. Approximately 500 μL of blood was collected from vena cava in anesthetized animals under isofluorane anesthesia. Blood was collected in heparinized tubes and immediately placed on wet ice. Plasma was prepared by centrifugation (1500×g, 15 min, 4° C.). Plasma samples were then transferred in clean 1.5 mL microtubes and stored at −80° C. until biochemical measurements were performed on a standard automated clinical chemistry analyzer (Dimension Xpand, SIEMENS) using corresponding kits.

HFD-fed C57BL6/J mice [2] = test: Oral glucose tolerance test in HFD-fed mice; format: in vivo; details: 10 weeks of treatment (FIG. 24)
Protocol: Mice in different treatment groups were administered (i) urolithin A mixed with food (food admix) to reach a dosing of 55 mg/kg body weight/day (mkd); (ii) ellagic acid mixed with food (food admix) to reach a dosing of 75 mkd; (iii) punicalagin (gavage) to reach a dosing of 90 mkd; or (iv) pomegranate extract (PE) (gavage) to reach a dosing of 140 mkd of total polyphenols. A typical pomegranate extract used in these experiments had the following composition: polyphenols, 140 mkd; punicalagin, 13.1 mkd; and ellagic acid, 13.2 mkd. For animals treated by gavage, gavage was performed daily (7 days/week) between 8:00 and 10:00 a.m.; compounds were mixed with saline solution (0.9% NaCl) and provided at a final volume of 5 mL/kg of body weight. Mice in high-fat control groups were fed with the same diet as the experimental animals. Mice in corresponding different control groups were administered either high-fat diet alone or high-fat diet plus daily gavage with vehicle (saline). Another control group of mice were fed standard chow diet alone.
Male C57BL6/J mice were grouped and treated as described in Example 7. In addition, glucose tolerance test (GTT) was performed for HFD-fed mice which developed glucose intolerance. Glucose tolerance test was monitored 10 weeks after the initiation of the treatment by Oral Glucose Tolerance Test (oGTT). Animals were fasted for 12 h (from 8 pm to 8 am) before oGTT. The day of the oGTT, a small drop of blood (<2 μL) was collected from the lateral tail vein and glycemia was monitored using a glucometer (AccuCheck Aviva, Roche Diagnosis). Each animal then received, at time 0, an oral dose of D-glucose at a dosing of 2 g/kg body weight. Glycemia was then monitored at times 15, 30, 45, 60, 90, 120, and 150 min after oral glucose load.

[3] = tested on: C2C12 myotubes (PGC-1α, Tfam, PFKFB3, CPT1b, MCAD, LCAD, Ndufa2, Cyt c, Mfn2); test: Mitochondrial gene expression by real time quantitative PCR in C2C12 myotubes; format: cell-based; details: 48 hr, 1, 10 or 50 μM, vs DMSO control (FIG. 3)
Protocol: To assess the effects of compounds on mitochondrial gene expression, C2C12 myoblasts were differentiated into myotubes by serum deprivation for 4 days (Cantó et al. (2009) Nature. 458:1056-60). Myotubes were incubated for 48 hr with ellagic acid or urolithin A at a final concentration of 1, 10 or 50 μM (all dissolved in DMSO, final concentration 0.1%). DMSO was used as a control (final concentration 0.1%). At the end of the treatment, cells were washed with phosphate buffered saline (PBS) and mRNA were immediately extracted according to manufacturer's instructions (Trizol Reagent, Invitrogen) by adding 1 mL of Trizol reagent. After extraction, cDNA were produced by reverse transcription according to manufacturer's instructions.
Assessment of the expression levels of genes (PGC-1α, Tfam, PFKFB3, CPT1b, MCAD, LCAD, Ndufa2, Cyt c, and Mfn2) which control the mitochondrial function was performed by real time quantitative PCR (Watanabe et al. (2004) J Clin Invest. 113:1408-18) by using the following set of primers (Fwd: forward primer; Rev: reverse primer): […]
PGC-1α (PPARγ-coregulator 1α) and Tfam (mitochondrial transcription factor A) are master regulators of the mitochondrial function, namely of mitochondrial biogenesis and mitochondrial phosphorylative oxidation (mOXPHOS). […]

| SMILES | citrate synthase activity (citrate synthase) | plasma levels of triglycerides (HFD-fed C57BL6/J mice [1]) | plasma levels of free fatty acids (HFD-fed C57BL6/J mice [1]) | glucose tolerance (oGTT, glycemia after 2 g/kg D-glucose) (HFD-fed C57BL6/J mice [2]) | mitochondrial activity by expression of mitochondrial genes [3] |
| --- | --- | --- | --- | --- | --- |
| O=C1O[C@H]2[C@@H]3OC(=O)c4cc(O)c(O)c(O)c4-c4c(O)c(O)c5oc(=O)c6c(c(O)c(O)c7oc(=O)c4c5c76)-c4c(cc(O)c(O)c4O)C(=O)OC[C@H]3OC(O)[C@@H]2OC(=O)c2cc(O)c(O)c(O)c2-c2c1cc(O)c(O)c2O (mixture of isomers) [punicalagin, 2,3 hexahydroxydiphenoyl-4,6-gallagylglucose] | increase citrate synthase activity in a dose-dependent manner | statistically significant improvement | statistically significant improvement | improved glucose tolerance |  |
| O=c1oc2c(O)c(O)cc3c(=O)oc4c(O)c(O)cc1c4c23 [ellagic acid] | increase citrate synthase activity in a dose-dependent manner |  |  | improved glucose tolerance | increase mitochondrial activity in a dose-dependent manner |
| O=c1oc2cc(O)ccc2c2ccc(O)cc12 [urolithin A, 3,8-Dihydroxydibenzo-α-pyrone] | increase citrate synthase activity in a dose-dependent manner | statistically significant improvement | statistically significant improvement | improved glucose tolerance | increase mitochondrial activity in a dose-dependent manner |
